In general, Hill slope refers to the slope factor of the fitted curve. As a reminder, the IC50 is the midpoint of a concentration-inhibition curve.

One experiment addresses T1, TRPC1:C4 (A498) (Homo sapiens, UniProt P48995+Q9UBN4).
T1 construct: endogenous in cells; host or cells: A498
Description: [Ca2+]i recordings (Fura-2), endogenous TRPC1:C4 channels in A498 cells. In kind it is cell-based. The settings on record: activator EA (100 nM). As for the experimental part: HEK T-REx cells expressing tetracycline-inducible TRPC4, TRPC5, TRPC5–C1,TRPC4–C1, and hPiezo1 have been described previously ([46], [57], [59], [78]). Cloning of TRPC3 has been described previously ([79]). To create cells stably expressing tetracycline-inducible TRPC3, HEK T-REx cells were transfected with pcDNA4/TO/hTRPC3 using jetPRIME transfection reagent (VWR) according to manufacturer’s instructions. After 48 h cells were put under antibiotic selection using 400 μg/ml zeocin and 10 μg/ml Blasticidin S (Invivogen)). Medium changes were carried out every 2 to 3 days to remove dead cells. Inducible HEK T-REx cells were cultured in Dulbecco’s modified Eagle medium GlutaMAX (Thermo Fisher Scientific) containing 10% fetal bovine serum (FBS; Merck), penicillin-streptomycin (100 units ml^−1/100 μg ml^−1), with the addition of blasticidin (10 μg ml^1; Invivogen) and zeocin (Invivogen) at either 400 μg ml^−1 (TRPC cell lines) or 200 μg ml^−1 (hPiezo1) to maintain the stable incorporation of the tetracycline repressor and the channel of interest, respectively. Expression of tetracycline-inducible proteins was induced by the addition of tetracycline (TRPC cell lines: 1 μg ml^−1, hPiezo1: 100 ng ml^−1; 24 h) to cell culture medium. […]
For Ca^2+ recording, electrophysiology, and cell viability experiments, data were analyzed using GraphPad Prism 9.0. […]

For a further experiment, the system named is DMS-114 cells. Description: Measurement of intracellular G418 (gentamicin ELISA) in DMS-114 cells. In kind it is cell-based, human. The settings on record: 150 μM AC1903 (Fig. 2D). As for the experimental part:
Figure 2 Effect of AC1903 on PTC readthrough and G418 trafficking.A and B, DMS-114 (A) or TC-71 (B) cells were pretreated with indicated concentrations of AC1903 for 3 h followed by exposure to 400 μg/ml G418. After 3 h medium was replenished and at 24 h cell lysates were prepared and p53 levels were measured. C and E, DMS-114 (C) or JEB01 (E) cells were either left untreated or pretreated with 150 μM AC1903 for 3 h followed by exposure to indicated concentrations of G418 for another 3 h. At 24 h cell lysates were prepared and p53 (C) or Collagen XVII (E) levels were measured. In panels A–C, protein levels were measured by automated capillary electrophoresis Western analysis (using vinculin as loading control). In panel E, protein levels were measured by Western blot (using beta-actin as loading control). […] D, total intracellular levels of G418 were measured in the same lysates as in (C) (n = 5; data normalized to the highest response in each experiment; bars represent mean ± SD). F, total intracellular levels of G418 were measured in the same lysates as in (E) (n = 2; data normalized to the highest response in each experiment; bars represent mean ± SD). ∗ indicates statistically significant difference between samples according to one-way ANOVA (p < 0.05). […]

T1 sequence (Q9UBN4 whole entry): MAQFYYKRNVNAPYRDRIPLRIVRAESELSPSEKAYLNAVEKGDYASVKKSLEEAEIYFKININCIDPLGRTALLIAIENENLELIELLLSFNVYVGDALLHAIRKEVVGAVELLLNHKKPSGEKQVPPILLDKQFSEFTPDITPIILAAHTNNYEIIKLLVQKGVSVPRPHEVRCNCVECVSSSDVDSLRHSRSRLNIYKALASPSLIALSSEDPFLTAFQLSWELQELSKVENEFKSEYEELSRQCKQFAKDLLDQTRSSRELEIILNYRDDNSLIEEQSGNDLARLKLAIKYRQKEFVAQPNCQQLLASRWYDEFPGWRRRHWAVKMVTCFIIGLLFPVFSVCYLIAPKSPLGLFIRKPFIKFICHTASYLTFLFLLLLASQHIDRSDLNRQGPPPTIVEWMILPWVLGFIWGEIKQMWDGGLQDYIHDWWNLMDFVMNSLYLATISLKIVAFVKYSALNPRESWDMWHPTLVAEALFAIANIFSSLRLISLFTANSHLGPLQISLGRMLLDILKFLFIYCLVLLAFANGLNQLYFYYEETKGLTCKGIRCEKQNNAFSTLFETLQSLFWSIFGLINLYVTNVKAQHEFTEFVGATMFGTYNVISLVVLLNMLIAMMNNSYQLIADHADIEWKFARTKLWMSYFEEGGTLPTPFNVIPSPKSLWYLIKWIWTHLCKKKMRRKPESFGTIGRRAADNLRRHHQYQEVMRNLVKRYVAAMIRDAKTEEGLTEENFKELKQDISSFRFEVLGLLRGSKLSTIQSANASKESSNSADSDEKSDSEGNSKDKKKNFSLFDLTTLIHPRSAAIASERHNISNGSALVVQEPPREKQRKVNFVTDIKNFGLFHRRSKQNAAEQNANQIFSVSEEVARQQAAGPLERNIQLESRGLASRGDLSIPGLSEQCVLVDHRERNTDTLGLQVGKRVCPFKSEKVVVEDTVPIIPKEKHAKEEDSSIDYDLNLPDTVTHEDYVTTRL
T1 sequence (P48995 whole entry): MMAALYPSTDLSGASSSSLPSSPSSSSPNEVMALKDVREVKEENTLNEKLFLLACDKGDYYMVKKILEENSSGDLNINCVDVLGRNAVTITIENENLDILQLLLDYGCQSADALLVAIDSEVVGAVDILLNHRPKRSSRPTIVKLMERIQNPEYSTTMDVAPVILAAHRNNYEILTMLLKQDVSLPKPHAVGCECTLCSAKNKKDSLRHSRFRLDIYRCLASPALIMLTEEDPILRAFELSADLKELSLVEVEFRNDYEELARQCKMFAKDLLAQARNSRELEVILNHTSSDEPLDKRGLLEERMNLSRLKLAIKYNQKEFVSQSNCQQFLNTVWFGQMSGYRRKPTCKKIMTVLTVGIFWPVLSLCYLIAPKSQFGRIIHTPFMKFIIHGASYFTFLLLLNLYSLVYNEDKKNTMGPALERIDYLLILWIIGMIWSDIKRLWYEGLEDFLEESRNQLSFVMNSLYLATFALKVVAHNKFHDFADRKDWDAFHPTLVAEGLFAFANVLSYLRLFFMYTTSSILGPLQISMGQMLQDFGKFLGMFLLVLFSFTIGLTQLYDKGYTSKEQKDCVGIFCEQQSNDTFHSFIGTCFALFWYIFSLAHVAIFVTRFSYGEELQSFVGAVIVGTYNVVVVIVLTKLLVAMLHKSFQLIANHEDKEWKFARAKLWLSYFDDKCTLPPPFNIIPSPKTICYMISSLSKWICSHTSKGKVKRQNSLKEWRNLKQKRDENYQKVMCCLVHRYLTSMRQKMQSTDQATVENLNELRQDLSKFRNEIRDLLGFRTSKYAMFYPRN

`c1ccc(Cn2c(NCc3ccco3)nc3ccccc32)cc1` [AC1903] came in with a Hill slope on TRPC1:C4 (A498) (A498) of -1.2. This compound gave an IC50 on TRPC1:C4 (A498) (A498 cells) of 3.4 µM. Also, the “intracellular G418 levels in the presence of AC1903” value in the experiment on DMS-114 cells was “significantly decreased”.

These data come from PMC8808171, “Nonselective TRPC channel inhibition and suppression of aminoglycoside-induced premature termination codon readthrough by the small molecule AC1903” (The Journal of Biological Chemistry, 2022).
